In ChEMBL document CHEMBL1777779, “Discovery of novel quaternary ammonium derivatives of (3R)-quinuclidinyl carbamates as potent and long acting muscarinic antagonists” (Bioorg Med Chem Lett, 2011):

Key:
[1] = molecular target: Muscarinic acetylcholine receptor M3 (Homo sapiens, UniProt P20309); assay: Displacement of [3H]NMS from human muscarinic M3 receptor expressed in CHO-K1 cells after 1 hr by scintillation counting; assay type: cell-based
[2] = molecular target: T1, Muscarinic acetylcholine receptor M2 (Homo sapiens, UniProt P08172); assay: Displacement of [3H]NMS from human muscarinic M2 receptor expressed in CHO-K1 cells after 1 hr by scintillation counting; assay type: cell-based
T1 sequence (P08172 whole entry): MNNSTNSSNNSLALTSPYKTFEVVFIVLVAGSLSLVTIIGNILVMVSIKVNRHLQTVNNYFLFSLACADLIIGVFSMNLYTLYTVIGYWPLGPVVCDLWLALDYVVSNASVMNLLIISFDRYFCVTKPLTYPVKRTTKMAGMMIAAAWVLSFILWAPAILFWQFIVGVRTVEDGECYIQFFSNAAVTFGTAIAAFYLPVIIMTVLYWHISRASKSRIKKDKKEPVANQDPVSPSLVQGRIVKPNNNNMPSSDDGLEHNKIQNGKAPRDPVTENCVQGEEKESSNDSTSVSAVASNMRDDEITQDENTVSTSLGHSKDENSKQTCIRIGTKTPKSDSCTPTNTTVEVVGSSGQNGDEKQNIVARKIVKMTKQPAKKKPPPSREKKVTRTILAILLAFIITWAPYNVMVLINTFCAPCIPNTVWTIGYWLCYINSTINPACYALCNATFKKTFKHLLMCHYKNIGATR

[3] = molecular target: T2, Muscarinic acetylcholine receptor M1 (Homo sapiens, UniProt P11229); assay: Displacement of [3H]NMS from human muscarinic M1 receptor expressed in CHO-K1 cells after 1 hr by scintillation counting; assay type: cell-based
T2 sequence (P11229 whole entry): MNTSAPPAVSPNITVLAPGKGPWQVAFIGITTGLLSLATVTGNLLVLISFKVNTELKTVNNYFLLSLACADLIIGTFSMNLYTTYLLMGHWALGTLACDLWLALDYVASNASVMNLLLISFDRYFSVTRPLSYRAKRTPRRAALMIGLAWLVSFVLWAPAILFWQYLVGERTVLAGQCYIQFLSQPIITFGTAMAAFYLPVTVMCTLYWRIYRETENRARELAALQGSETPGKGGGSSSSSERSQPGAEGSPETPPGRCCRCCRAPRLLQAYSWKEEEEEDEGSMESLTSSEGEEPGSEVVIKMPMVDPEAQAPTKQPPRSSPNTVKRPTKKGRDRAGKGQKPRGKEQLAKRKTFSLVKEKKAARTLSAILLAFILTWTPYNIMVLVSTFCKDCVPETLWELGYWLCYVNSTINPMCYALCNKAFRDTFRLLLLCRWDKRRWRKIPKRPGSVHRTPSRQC

[4] = molecular target: Muscarinic acetylcholine receptors; M2 & M3 (Homo sapiens) (UniProt P20309+P08172); assay: Selectivity ratio of IC50 for human muscarinic M2 receptor to IC50 for human muscarinic M3 receptor
[5] = molecular target: Muscarinic acetylcholine receptor M1 and M3 (Homo sapiens) (UniProt P20309+P11229); assay: Selectivity ratio of IC50 for human muscarinic M1 receptor to IC50 for human muscarinic M3 receptor
Cavia porcellus [6] = assay: Inhibition of acetylcholine-induced bronchospasm in anesthetized Dunkin-Hartley guinea pig assessed as time required to recover 50% of maximum inhibitory effect at 1 mg/ml administered via nebulizer; assay type: functional
Cavia porcellus [7] = assay: Inhibition of acetylcholine-induced bronchospasm in anesthetized Dunkin-Hartley guinea pig assessed as time required to recover 50% of maximum inhibitory effect at 3 mg/ml administered via nebulizer; assay type: functional

Chain of Muscarinic acetylcholine receptor M1 and M3 (Homo sapiens) (P20309 whole entry, looked up, one chain of several): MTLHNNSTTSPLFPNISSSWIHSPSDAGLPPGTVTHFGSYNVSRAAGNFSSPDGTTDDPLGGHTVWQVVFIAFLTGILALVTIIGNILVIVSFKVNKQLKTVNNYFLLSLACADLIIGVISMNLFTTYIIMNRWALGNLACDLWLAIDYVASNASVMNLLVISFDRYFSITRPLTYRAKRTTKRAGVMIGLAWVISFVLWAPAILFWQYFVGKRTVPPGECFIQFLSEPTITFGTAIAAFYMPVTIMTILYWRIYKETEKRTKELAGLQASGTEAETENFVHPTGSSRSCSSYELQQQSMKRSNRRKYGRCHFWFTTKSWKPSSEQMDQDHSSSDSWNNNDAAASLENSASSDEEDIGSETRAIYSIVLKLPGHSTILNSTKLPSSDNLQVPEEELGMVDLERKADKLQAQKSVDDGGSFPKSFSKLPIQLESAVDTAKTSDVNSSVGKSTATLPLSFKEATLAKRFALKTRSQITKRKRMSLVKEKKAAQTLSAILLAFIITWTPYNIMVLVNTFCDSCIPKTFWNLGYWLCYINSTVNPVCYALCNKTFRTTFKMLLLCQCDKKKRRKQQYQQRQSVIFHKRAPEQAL
Chain of Muscarinic acetylcholine receptors; M2 & M3 (Homo sapiens) (P20309 whole entry, looked up, one chain of several): as above
Chain of Muscarinic acetylcholine receptor M3 (P20309 whole entry): as the sequence (P20309 whole entry, looked up, one chain of several) above

Compound	IC50 [1]	IC50 [2]	IC50 [3]	Ratio IC50 [4]	Ratio IC50 [5]	Time (Cavia porcellus [6])	Time (Cavia porcellus [7])
CCCCN(C(=O)O[C@H]1C[N+]2(CCCc3ccccc3)CCC1CC2)c1ccccc1	0.8 nM	17.7 nM	2.5 nM	22.1	3.1		
Cc1ccc(N(Cc2ccccc2)C(=O)O[C@H]2CN3CCC2CC3)cc1	74.7 nM	196 nM	39.7 nM	2.6	0.5		
CCCCN(C(=O)O[C@H]1CN2CCC1CC2)c1ccccc1	4.3 nM	22.9 nM	1.1 nM	5.3	0.2	<1 h	
O=C(O[C@H]1C[N+]2(CCOc3ccccc3)CCC1CC2)N(Cc1ccccc1)c1ccccc1.[Br-]	1 nM	3.9 nM	1.7 nM	3.9	1.7	>6 h	
O=C(O[C@H]1C[N+]2(CCCc3cccs3)CCC1CC2)N(Cc1cccs1)c1ccccc1.[Br-]	0.5 nM	3.2 nM	1.6 nM	6.4	3.2	>6 h	
CCCCN(C(=O)O[C@H]1C[N+]2(CCCc3cccs3)CCC1CC2)c1ccccc1.[Br-]	0.6 nM	10.9 nM	2 nM	18.2	3.3	>6 h	
O=C(O[C@H]1C[N+]2(CCCc3cccs3)CCC1CC2)N(Cc1ccccc1)c1ccccc1.[Br-]	0.6 nM	7.6 nM	1.4 nM	12.7	2.3	>6 h	
O=C(O[C@H]1C[N+]2(CCOc3ccccc3)CCC1CC2)N(Cc1cccs1)c1ccccc1.[Br-]	0.3 nM	1.1 nM	0.4 nM	3.7	1.3	>6 h	
O=C(O[C@H]1CN2CCC1CC2)N(Cc1ccccc1)c1ccccc1	1.2 nM	3.7 nM	0.4 nM	3.1	0.3		1.5 h
O=C(O[C@H]1C[N+]2(CCCc3cccs3)CCC1CC2)N(Cc1ccsc1)c1ccccc1.[Br-]	0.6 nM	8.4 nM	2 nM	14	3.3	>6 h	
O=C(O[C@H]1CN2CCC1CC2)N(Cc1ccccc1)Cc1cccs1	22.5 nM	88.9 nM	8.8 nM	3.95	0.4		
O=C(Nc1ccccc1-c1ccccc1)OC12CCN(CC1)CC2	6 nM	14.5 nM	3 nM	2.4	0.5		
O=C(O[C@H]1C[N+]2(CCOc3ccccc3)CCC1CC2)N(Cc1cc(F)c(F)c(F)c1)c1cccc(F)c1.[Br-]	0.6 nM	14.4 nM	1.1 nM	24	1.8	>6 h	
O=C(O[C@H]1C[N+]2(CCCc3ccccc3)CCC1CC2)N(Cc1ccccc1)c1ccccc1.[Br-]	0.3 nM	4 nM	1.5 nM	13.3	5	>6 h	
CCCCN(C(=O)O[C@H]1C[N+]2(CCc3ccccc3)CCC1CC2)c1ccccc1	19 nM	121 nM	33.3 nM	6.3	1.7		
O=C(O[C@H]1C[N+]2(CCOc3ccccc3)CCC1CC2)N(Cc1ccsc1)c1ccccc1.[Br-]	0.2 nM	1.6 nM	0.4 nM	8	2	>6 h	
C[N+]12CCC(CC1)[C@@H](OC(=O)N(Cc1cccs1)c1ccccc1)C2	18.6 nM	33.1 nM	9.2 nM	1.8	0.5		
O=C(O[C@H]1CN2CCC1CC2)N(Cc1cccs1)Cc1cccs1	5.9 nM	22.7 nM	2.4 nM	3.8	0.4		

Compound	IC50 [1]	IC50 [2]	IC50 [3]	Ratio IC50 [4]	Ratio IC50 [5]	Time (Cavia porcellus [6])	Time (Cavia porcellus [7])
O=C(O[C@H]1CN2CCC1CC2)N(c1ccccc1)c1ccccc1	797 nM	2780 nM	319 nM	3.5	0.4		
CCCCN(Cc1cccs1)C(=O)O[C@H]1CN2CCC1CC2	17.7 nM	76.2 nM	0.8 nM	4.3	0.04		
CC(C)N(C(=O)O[C@H]1CN2CCC1CC2)c1ccccc1	659 nM	1360 nM	428 nM	2.1	0.6		
CCCCCN(C(=O)O[C@H]1CN2CCC1CC2)c1ccccc1	1.7 nM	13.6 nM	0.8 nM	8	0.5		
O=C(O[C@H]1CN2CCC1CC2)N1CCc2ccccc2[C@@H]1c1ccccc1 [SOLIFENACIN SUCCINATE]	131 nM	574 nM	63.5 nM	4.4	0.5		
CCCN(C(=O)O[C@H]1CN2CCC1CC2)c1ccccc1	71.1 nM	349 nM	26.7 nM	4.9	0.4		
O=C(O[C@H]1CN2CCC1CC2)N(Cc1cc(F)c(F)c(F)c1)c1cccc(F)c1 [TARAFENACIN]	1.5 nM	97.3 nM	0.9 nM	64.9	0.6		
Cc1cccc(N(Cc2cc(F)c(F)cc2F)C(=O)O[C@H]2CN3CCC2CC3)c1	1.4 nM	45.8 nM	1 nM	32.7	0.7		
CCCCN(C(=O)O[C@H]1C[N+]2(CCOc3ccccc3)CCC1CC2)c1ccccc1.[Br-]	0.8 nM	8.9 nM	1.4 nM	11.1	1.7	>6 h	
O=C(O[C@H]1CN2CCC1CC2)N(Cc1cccs1)c1ccccc1	0.6 nM	1.8 nM	0.4 nM	3	0.7	<4 h	
Cc1cccc(N(Cc2cc(F)c(F)cc2F)C(=O)O[C@H]2C[N+]3(CCCc4ccccc4)CCC2CC3)c1.[Br-]	0.9 nM	29.8 nM	3 nM	33.1	3.3	<6 h	
Cc1cccc(N(Cc2cc(F)c(F)cc2F)C(=O)O[C@H]2C[N+]3(CCOc4ccccc4)CCC2CC3)c1.[Br-]	1.2 nM	28 nM	2.4 nM	23.3	2	<6 h	
O=C(O[C@H]1CN2CCC1CC2)N(Cc1ccccc1)c1ccc(F)cc1	15 nM	116 nM	8.3 nM	7.7	0.5		
O=C(O[C@H]1CN2CCC1CC2)N(CCc1ccccc1)c1ccccc1	3.6 nM	42.1 nM	1 nM	11.7	0.3		
O=C(O[C@H]1CN2CCC1CC2)N(Cc1ccsc1)c1ccccc1	1 nM	4.7 nM	0.4 nM	4.7	0.4	<4 h	
O=C(O[C@H]1C[N+]2(CCc3ccccc3)CCC1CC2)N(Cc1ccccc1)c1ccccc1.[Br-]	17.7 nM	50.9 nM	15.1 nM	2.9	0.85	<2 h	
O=C(O[C@H]1CN2CCC1CC2)N(Cc1cccc(F)c1)c1cccc(F)c1	2.4 nM	26.8 nM	1.5 nM	11.2	0.6		
